Measurements published in patent US7132243B2, “Clonal expansion of T cells of unknown specificity and identification of ligand recognized by the clonally expanded T cells” (Juridical Foundation The Chemo-Sero-Therapeutic Research …, priority 2001, dated 2006).
Where no end group is shown, it is not given here.

Test system: 19.6.47 T cells
Assay: Proliferation reaction of isolated T cell clone with cedar pollen antigen and synthetic peptide
Assay type: cell-based, human
Settings: radiated (45 Gy) PBMC; FIG. 5
Experimental: Purified Cry j I protein (closed bar: 50 μg/ml, hatched bar: […], and open bar: 0.5 μg/ml), Cry j I p301–321 (closed bar: 250 μM, hatched bar: 25 μM, and open bar: 2.5 μM), and irrelevant (irrelevant peptide: […](SEQ ID NO: 3)).
The donor of 19.6.47 T cells suffered from hay fever of Japanese cedar pollen and said T cells were established during heavy pollination season. In this respect, a major allergen of Japanese cedar pollen (Cryptomeria japonica I; Cry j I) among the three non-autologous peptides shown in Table 3 was considered to be a possible peptide ligand recognized by said T cell clone. Thus, a synthetic peptide Cry j I p301–321 ([…](SEQ ID NO: 4)) and purified Cry j I protein were examined for their reactivity with the 19.6.47 T cells. A major allergen of Japanese cedar (Cryptomeria japonica) pollen was purified as described in Matsushita, S. et al., J. Immunol., 1987, 138: 109–115.
The 19.6.47 T cells were cultured with radiated (45 Gy) PBMC either in the presence of purified Cry j I protein ([…]), Cry j I p301–321 peptide ([…]) or irrelevant peptide.

| Molecule | reactivity with the 19.6.47 T cells (proliferation) |
| --- | --- |
| DVFYNGAYFVSSGKYEGGNIY (SEQ ID NO: 4) [Cry j I p301–321] | reacted |
| purified Cry j I protein: purified major allergen of Japanese cedar (Cryptomeria japonica) pollen (protein) DNPIDSCWRGDSNWAQNRMKLADCAVGFGSSTMGGKGGDLYTVTNSDDDPVNPAPGTLRYGATRDRPLWIIFSGNMNIKLKMPMYIAGYKTFDGRGAQVYIGNGGPCVFIKRVSNVIIHGLYLYGCSTSVLGNVLINESFGVEPVHPQDGDALTLRTATNIWIDHNSFSNSSDGLVDVTLTSTGVTISNNLFFNHHKVMLLGHDDAYSDDKSMKVTVAFNQFGPNCGQRMPRARYGLVHVANNNYDPWTIYAIGGSSNPTILSEGNSFTAPNESYKKQVTIRIGCKTSSSCSNWVWQSTQDVFYNGAYFVSSGKYEGGNIYTKKEAFNVENGNATPQLTKNAGVLTCSLSKRC | reacted |
